US5260465A, “Inhibitors of farnesyl protein transferase” (Merck & Co., Inc., priority 1991, dated 1993)

Columns and labels:
[1] = pH-dependent equilibrium / solution form of anhydride (9) and diacid (10), followed by UV; format: physicochemical; conditions: for predominant form in solution (diacid/anhydride equilibrium): in a solution, pH dependent
Source text: The equilibrium between diacid (10) and anhydride (9) in a solution is pH dependent. […] However, when basified with dil NaOH, this maximum shifted to λmax 243 run. This shift is clear evidence of opening of the anhydride into the diacid. [drawing 8]
The latter band underwent a hypsochromic shift to 240 run after addition of dil NAOH.

[2] = biological target: T1, Farnesyl-protein transferase (FTase) from bovine brain (Bos taurus, UniProt P29702+P49355); test: Inhibition of Ras farnesylation in vitro (FTase assay with Ras-CVLS and [3H]FPP); format: biochemical; conditions: for IC50: Ras-CVLS 3.5 μM, 0.25 μM [3H]FPP, partially purified enzyme, compound (9) or (10), under assay conditions open dicarboxylate form
T1 construct: Farnesyl-protein transferase (FTase) from bovine brain was chromatographed on DEAE-Sephacel; from tissue; host or cells: bovine brain, partially purified (DEAE-Sephacel, N-octyl agarose, mono Q)
Method: The intrinsic farnesyl-protein transferase (FTase) activity of representative compounds of this invention was measured by the assay as described below:
Farnesyl-protein transferase (FTase) from bovine brain was chromatographed on DEAE-Sephacel (Pharmacia, 0-0.8M NaCl gradient elution), N-octyl agarose (Sigma, 0-0.6M NaCl gradient elution), and a mono Q HPLC column (Pharmacia, 0-0.3M NaCl gradient). Ras-CVLS (Cys-Val-Leu-Ser) at 3.5 μM, 0.25 μM [^3 H]FPP, and the indicated compounds were incubated with this partially purified enzyme preparation. The FTase inhibition data presented below is a measurement of the ability of the test compound to inhibit Ras farnesylation in vitro.

[3] = system: Ras farnesylation; conditions: Hancock et al., Casey et al., Schafer et al.; cited from earlier work
[4] = system: HMG-CoA reductase; conditions: cited from earlier work

Row | Compound | predominant form in solution (diacid/anhydride equilibrium) [1] | reactivity with CH3OH ([1]; methanolic solution) | IC50 [2] | form under assay conditions ([1]; CH3OH-HEPES buffer solution (7:5), pH 7.5) | existence in solution by pH ([1]; in solution) | Ras farnesyl transferase inhibitory activity of the diisopropylethylamine salt ([2]; open diacid (10) trapped as a diisopropylethylamine salt) | Inhibition of Ras farnesylation in vivo [3] | inhibition of HMG-CoA reductase [4]
1 | CCCCCCCC/C=C\CCCCCCC1=C(C)C(=O)OC1=O [Compound (9)] | predominates when the solution is acidic | reacts slowly with CH3 OH | 0.11 µM | – | – | – | – | –
2 | CCCCCCCC/C=C\CCCCCC/C(C(=O)O)=C(\C)C(=O)O [Compound (10)] | predominates when the solution is basic | – | 0.11 µM | exists substantially in the open dicarboxylate form | exists in solution at pH 7 and above | without any loss of Ras farnesyl transferase inhibitory activity | – | –
3 | CC[C@H](C)C(=O)O[C@H]1CCC=C2C=C[C@H](C)[C@H](CC[C@@H]3C[C@@H](O)CC(=O)O3)[C@H]21 [compactin] | – | – | – | – | – | – | Inhibition of Ras farnesylation in vivo has been demonstrated | inhibit HMG-CoA reductase
4 | CC[C@H](C)C(=O)O[C@H]1C[C@@H](C)C=C2C=C[C@H](C)[C@H](CC[C@@H]3C[C@@H](O)CC(=O)O3)[C@H]21 [lovastatin] | – | – | – | – | – | – | Inhibition of Ras farnesylation in vivo has been demonstrated | inhibit HMG-CoA reductase
